# Experiments:
# [1] = system: Methionine Choline-Deficient (MCD) Mouse model NASH; test: Liver fibrosis markers in the MCD model of Non-alcoholic Steatohepatitis (NASH); format: in vivo; conditions: mice, MCD 8 weeks, 20 mg/kg orally the last 4 weeks, vs placebo
# [2] = system: Methionine Choline-Deficient (MCD) Mouse model NASH; test: as above; format: in vivo; conditions: mice, MCD 8 weeks, 20 mg/kg orally the last 4 weeks, vs placebo; remark: listed apart in the source
# Procedure: Mice were fed the Liver fibrosis-inducing Methionine Choline-Deficient (MCD) Mouse model NASH for 8 weeks, and the last 4 weeks they were dosed orally with 20 mg/kg of compound number 3 (RTX60933293), compound number 5 (RTX73145433), or placebo. After 8 weeks of MCD dosing, mice were sacrificed, and livers were extracted for nucleic acids and classical markers of liver fibrosis were assayed by QRTPCR.
# Without wishing to be bound by theory, NASH could be considered the next-most common metabolic disturbance after Type 2 Diabetes in the USA, and currently has no approved treatment. There is a usual progression from NAFLD (fatty liver) to the more fibrotic/cirrhotic NASH. While the precise mechanism of the transition of NAFLD to NASH is not completely understood, hepatocyte death and resulting fibrosis has been proposed. Fibrosis and fibrotic scarring are thought to be the most important pathophysiological endpoints to end-stage NASH, which typically necessitates an expensive and difficult liver transplant. As shown in other examples, Shc blockers through their sensitization to insulin, IGF-1 and other growth factors, are cytoprotective. Thus, by inhibiting hepatocyte death which promotes fibrosis, they should also be anti-fibrotic.
# [3] = system: Corticosterone model of Insulin resistance; test: Glucose Tolerance Test in the Corticosterone model of Insulin resistance; format: in vivo, mice; conditions: for glucose tolerizing effect in the Corticosteroid model: FIG. 3, summary in Example 1E; for GTT: glucose intolerance at time points after glucose administration / GTT Area Under the Curve (AUC): glucose intolerance relative to placebo: mice, corticosterone 21 days, 10 mg/kg i.p. for the final 5 days; for GTT: glucose intolerance at time points after glucose administration: FIG. 3 A/B; for GTT Area Under the Curve (AUC): glucose intolerance relative to placebo: FIG. 3 C
# Procedure: In a standard model of glucose intolerance and insulin insensitivity, corticosterone (CS) was dosed for 21 days, and in the drug treated group mice were administered Shc Blocker #3=RTX60933293 or #5=RTX73145433 at a dose of 10 mg/kg i.p. for the final 5 days of the 21-day CS treatment. […] By blocking the interaction of Shc protein with phosphotyrosines on the Insulin Receptor, a Shc blocker redirects more signaling to the insulin-sensitizing and glucose tolerizing phospho-Akt. Thus, peripheral cells become more sensitive per molecule insulin, and consequently more glucose tolerant. This prediction is borne out in the Corticosteroid model. Corticosterone is a known model of Type 2 Diabetes and Metabolic Syndrome, as Corticosterone induces peripheral insulin insensitivity.
SMILES,liver fibrosis bio marker hydroxyproline [1],"Collagen 1a1 (Col1), liver, QRTPCR [2]","Matrix Metalloproteinase 2 (MMP2), liver, QRTPCR [2]","Tissue metallopeptidase inhibitor 1 (TIMP1), liver, QRTPCR [2]","Transforming Growth Factor beta (TGF-b), liver, QRTPCR [2]","alpha-smooth muscle actin (aSMA), liver, QRTPCR [2]",glucose tolerizing effect in the Corticosteroid model [3],GTT: glucose intolerance at time points after glucose administration [3],GTT Area Under the Curve (AUC): glucose intolerance relative to placebo [3]
O=C(NCCS(=O)(=O)Cc1ccccc1)N1CC=C(c2cccc3ccccc23)C1 [Compound 3],significantly reduced,significantly reduced,significantly reduced,significantly reduced,significantly reduced,significantly reduced,significantly glucose tolerizing,reduced glucose intolerance significantly at 4 time points,significantly reduced glucose intolerance
O=C(c1cccc(-n2cccc2)c1)N1CCOC(c2cccc(OC(F)F)c2)C1 (stereo not drawn) [Compound 5],significantly reduced,significantly reduced,significantly reduced,significantly reduced,significantly reduced,significantly reduced,significantly glucose tolerizing,reduced glucose significantly at 2 time points,significantly reduced glucose intolerance
